Results from patent US20230272012A1, “PEPTIDES AND METHODS OF USE” (REALTA LIFE SCIENCES, INC., priority 2020, published 2023).
Entries after “also recorded” stand apart in the source; their conditions may differ. Peptide text beside a SMILES is read from it.

Tests used:
[1] = type: in vivo, rat; details: IV in Wistar rats, 20, 200, 400 mg/kg; 0.5-1440 minute
Protocol: (§1) Male Wistar rats with indwelling jugular catheters were administered PA-0117, -0127, -0130, and -0133 with groups of three animals receiving 20, 200 and 400 mg/kg of the compound as a single, bolus, IV infusion. A control group of rats received an infusion of saline IV. At various time points after infusion (0.5, 2, 5, 20, 60, 120, 240, 480, 1440 minute) an aliquot of blood was drawn and plasma isolated and frozen at −70° C. pending analysis. Animals were sacrificed after the terminal blood draw and a gross necropsy performed.
(§2) PA-0117 could not be analyzed as no functional complement activity was obtained from the plasma samples. […] PA-0117 was analyzed in a C1q target acquisition assay (C1q binding assay) as described in Example 1 (FIG. 9). […] PA-0127 and -0130 levels were determined by coating the plate with the plasma samples and directly detecting the peptides by rabbit antibody raised against PA-0020 (peptide sequence […]; SEQ ID NO: 57) (FIGS. 10B and 11B). […] PA-0133 could not be detected by the available antibodies.
PA-0117: The hemolysis assay results were not useable (few pre-bleeds had any activity, and only a few other random samples had any complement activity). The PK assay for PA-0117 was performed by sandwich ELISA (FIG. 9). PA-0127: The results of the hemolysis assay are discussed herein (see also FIG. 10A). […] PA-0130: The results of the hemolysis assay are discussed herein (see also FIG. 11A). […] PA-0133: The results of the hemolysis assay are discussed herein (FIG. 12).

complement activity = experiment: Hemolytic assay of plasma after IV infusion into rats; type: in vivo, rat; details: IV in Wistar rats; early time points at the highest dose
Protocol: as §1, §2

human neutrophils = experiment: NETosis assay (free DNA, PicoGreen); type: cell-based; details: peptide 2 mM; neutrophils stimulated with PMA and H2O2
Protocol: Free DNA as a marker for NET formation was measured by PicoGreen as previously described. Briefly, 2.0×10^6 human neutrophils in 96-well plates were stimulated with 12 nM PMA and 0.05% H2O2 in RPMI with or without the indicated peptide variants (2 mM) for 2.5 hr in a 37° C. humified incubator supplemented with 5% CO2, allowing NETosis to occur. Neutrophils in RPMI alone served as a negative control. Fifty units of […] (Fisher) were added to each well to allow for digestion of released extracellular DNA for 10 min at 37° C. The preparation was then aliquoted into an adjacent well and mixed 1:1 with prepared PICO green reagent (Fisher). The fluorescence was then quantified on a BioTek microplate reader at excitation 485 nm/emission 528 nm.

[2] = ABO incompatibility hemolytic assay of complement activity (CH50-type); type: cell-based, human; details: peptide 0.8 mg/ml (~0.5 mM); read-out: decrease of ABO hemolysis compared to PA-I8Sar
Protocol: FIG. 1A-1B show PIC1 peptides' inhibition of complement activation in an ABO incompatibility assay. […] Inhibition of ABO incompatibility hemolysis in a CH50-type assay. Peptides are at a final concentration of 0.5 mM. Values are represented as a percent of the positive control, which consists of human O sera and AB red blood cells in GVBS^++ buffer. Data are the means of n=3 independent experiments±SEM.
For hemolytic complement assays, human red blood cells (RBCs) from type AB donors were purified, washed, and standardized to 1.0×10^9 cells/ml, as previously described. Human sera from type O donors at a 15% final concentration was combined with 0.5 mM of the peptides and the volume was brought up to 0.2 ml with GVBS^++ and 5.0×10^7 RBCs. The samples were incubated for 1 hour at 37° C. and then spun at 3,000 rpm for 5 minutes and the supernatant was collected and read at 412 nm. Values are represented as a percent of the positive control, which consists of human O sera and AB red blood cells in GVBS^++ buffer.
To assess the extent to which the peptide variants inhibit antibody-initiated complement activation, an ABO incompatibility ex vivo assay was utilized in which purified erythrocytes from a ‘type AB+’ donor are incubated with sera from a ‘type O’ subject containing anti-A and anti-B antibodies. Peptides were tested at a concentration of 0.8 mg/ml (˜0.5 mM). […] D-amino acid variants PA-0127 and PA-0133 decreased ABO hemolysis by 20% (P value=0.083) and 25% (P value=0.076), respectively. […]

CTLA-4 = molecular target: T1, CTLA-4 (Homo sapiens, UniProt P16410); experiment: CTLA-4 Blockade Bioassay (Promega); type: cell-based; parameters: host or cells: Jurkat T cells (CTLA-4 effector cells); aAPC/Raji cells; details: increasing concentrations; listed as RLS-0130
T1 sequence (P16410 36-223): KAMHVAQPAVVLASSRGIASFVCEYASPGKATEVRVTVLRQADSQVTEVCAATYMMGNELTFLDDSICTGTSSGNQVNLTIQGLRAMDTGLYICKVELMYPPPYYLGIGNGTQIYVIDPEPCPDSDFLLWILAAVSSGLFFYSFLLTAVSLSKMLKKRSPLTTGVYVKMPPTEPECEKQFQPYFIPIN
Protocol: CTLA-4 effector cells were incubated with aAPC/Raji Cells in the absence or presence of increasing concentrations of anti-CTLA-4 antibody (positive control), RLS-0127*, RLS-0130, RLS-0156, RLS-0170 and RLS-0174. Luminescence was detected in luminometer plate reader.
To assess if PIC1 peptides could block CTLA-4 inhibitory activity in a cell-based assay, select peptides were screened in the CTLA-4 Blockade Bioassay (Promega). This bioluminescent cell-based assay is used to measure the potency and stability of molecules targeting CTLA-4 and consists of two genetically engineered cell lines: CTLA-4 effector cells: Jurkat T cells expressing human CTLA-4 and a luciferase reporter driven by a native promoter which responds to TCR/CD28 activation and aAPC/Raji Cells: Raji cells expressing an engineered cell surface protein designed to activate cognate TCRs in an antigen-independent manner and endogenously expressing CTLA-4 ligands CD80 and CD86. When the two cell types are co-cultured, CTLA-4 competes with CD28 for their shared ligands, CD80 and CD86 and thus inhibits CD28 pathway activation and promoter-mediated luminescence. Addition of a molecule that blocks the interaction of CTLA-4 with its ligands CD80 and CD86 results in promoter-mediated luminescence.

[3] = tested on: purified human Pan T-cells; experiment: T-cell exhaustion protocol (Dynabeads re-stimulation); type: cell-based; details: peptides 2 mg/ml at each stimulation
Protocol: Purified human pan-T-cells were subject to stimulation with Dynabeads every 48 hours over the period of 8 days with cells also receiving PIC1 peptides (2 mg/ml) at each stimulation. Cells not receiving Dynabeads were run in parallel to assess background levels of Caspase 3/7 signal. At the eighth day, cells were harvested and the levels of Caspase 3/7 determined by ELISA.
Purified human pan-T-cells were subject to stimulation with Dynabeads every 48 hours over the period of 8 days with cells also receiving PIC1 peptides (2 mg/ml) at each stimulation. Cell supernatants were collected at each stimulation and levels of IL-2 and IFN-gamma assayed by ELISA.
T-cell exhaustion is a form of T-cell dysfunction that occurs in cancer. It is defined by poor effector function, reduction in cytokine release (e.g., IL-2, TNF-alpha, IFN-gamma), sustained expression of inhibitory receptors (e.g., PD-1, LAG-3, CD244, CD160) with the progressive loss of effector function due to overstimulation. Exhaustion prevents optimal control of tumor growth. Exhausted T cells are prevalent in the tumor microenvironment (TME) and can lead to T-cell apoptosis. T-cell exhaustion is reversible, and pharmaceutical inhibition of T-cell exhaustion has been considered a promising strategy by many cancer researchers. To ascertain if PIC1 peptides could reverse T-cell exhaustion and increase T cell viability and effector function, a T-cell exhaustion protocol was developed. To induce T-cell exhaustion, purified human Pan T-cells were stimulated with T-Activator CD3/CD28 Dynabeads and cells are washed and re-stimulated every 48 hours. PIC1 peptides were added to the cells after each stimulation with Dynabeads. After three to four stimulations cells were harvested for readouts which consisted of assessing T-cell apoptosis by measuring Caspase 3/7 levels and production of cytokines IL-2 and IFN-gamma which is indicative of T-cell functionality. […] To further evaluate if PIC1 peptides could restore T-cell functionality in cells that have undergone the exhaustion protocol, the inventors next assessed production of cytokines IL-2 and IFN-gamma. Supernatants from the cells after each stimulation were collected and the cytokines measured by ELISA. […] The lower level of IFN-gamma signal compared to IL-2 was consistently seen in this assay.

PD-1/PD-L1 interaction = molecular target: T2, PD-1/PD-L1 interaction (Homo sapiens, UniProt Q15116+Q9NZQ7); experiment: PD-1/PD-L1 Blockade Bioassay (Promega); type: cell-based; details: increasing peptide concentrations
T2 construct: host or cells: PD-1 effector cells; PD-L1 aAPC/CHO-K1 cells
Protocol: PD-1 effector cells were incubated with PD1-L1 aAPC cells in the absence or presence of increasing concentrations of anti-PD-1 antibody (positive control) and select PIC1 peptides. Luminescence was detected in luminometer plate reader.
To assess if PIC1 peptides could block PD-1 inhibitory activity in a cell-based assay, select peptides were screened in the PD-1/PD-L1 Blockade Bioassay (Promega). The PD-1/PD-L1 Blockade Bioassay is a biologically relevant MOA-based assay that can be used to measure the potency and stability of antibodies and other biologics designed to block the PD-1/PD-L1 interaction. This bioluminescent cell-based assay is used to measure the potency and stability of molecules targeting PD-1 and consists of two genetically engineered cell lines: aAPC/CHO-K1 Cells are CHO-K1 cells with an engineered cell surface protein designed to activate cognate TCRs in an antigen-independent manner. When the two cell types are co-cultured, the PD-1/PD-L1 interaction inhibits TCR signaling and NFAT-mediated luciferase activity. Addition of an inhibitory molecule that blocks either PD-1 or PD-L1 releases the inhibitory signal and results in TCR signaling and NFAT-mediated luciferase activity.

[4] = as described in U.S. Pat. No. 10,005,818; cited from earlier work

T2 sequence (Q15116 25-288): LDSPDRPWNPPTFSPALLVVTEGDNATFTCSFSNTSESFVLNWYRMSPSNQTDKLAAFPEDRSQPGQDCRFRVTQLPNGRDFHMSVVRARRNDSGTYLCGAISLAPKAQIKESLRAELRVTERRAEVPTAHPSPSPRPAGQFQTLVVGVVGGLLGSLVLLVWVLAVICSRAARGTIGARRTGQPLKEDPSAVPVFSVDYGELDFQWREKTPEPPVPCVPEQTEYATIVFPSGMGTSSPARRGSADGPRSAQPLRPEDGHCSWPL
T2 sequence (Q9NZQ7 19-290): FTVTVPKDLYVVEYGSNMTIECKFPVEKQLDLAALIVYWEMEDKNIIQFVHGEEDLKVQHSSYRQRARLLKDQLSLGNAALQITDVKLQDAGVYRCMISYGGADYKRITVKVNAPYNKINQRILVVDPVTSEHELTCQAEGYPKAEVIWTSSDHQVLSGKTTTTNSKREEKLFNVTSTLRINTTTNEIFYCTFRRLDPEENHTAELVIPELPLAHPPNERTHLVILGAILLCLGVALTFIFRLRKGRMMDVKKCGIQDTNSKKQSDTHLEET

Molecule	peptide level in plasma over time [1]	inhibition of complement activity in the hemolytic assay of rat plasma (complement activity)	reduction of free DNA (marker of NETosis) (human neutrophils)	decrease in ABO hemolysis compared to reference peptide [2] [%]	inhibitory activity in CTLA-4 blockade bioassay (luminescence) (CTLA-4)	Caspase 3/7 levels ([3]; eighth day)	IL-2 signal at stimulation 2 ([3]; supernatant ELISA)	inhibition of PD-1/PD-L1 inhibitory signaling (luminescence) (PD-1/PD-L1 interaction)	water solubility without PEGylation [4]
CC[C@H](C)[C@H](N)C(=O)N[C@@H](C)C(=O)N[C@@H](CC(C)C)C(=O)N[C@H](C(=O)N[C@@H](CC(C)C)C(=O)N[C@@H](CCC(=O)O)C(=O)N1CCC[C@H]1C(=O)N(C)CC(=O)N[C@H](CS)C(=O)N[C@@H](CS)C(=O)N[C@@H](CCC(N)=O)C(=O)N[C@@H](CCC(=O)O)C(=O)N[C@@H](CCCNC(=N)N)C(=O)N[C@@H](C)C(=O)N[C@@H](C)C(=O)O)[C@@H](C)CC [PA-0127, IALILEP(Sar)dCCQERAA] (HELM PEPTIDE1{I.A.L.I.L.E.P.[Sar].[dC].C.Q.E.R.A.A}$$$$V2.0)	increased binding was observed at early time points with diminished signal at later time points	inhibition of complement activity	did not reduce levels of free DNA; also recorded: did not show a reduction in free DNA	20	–	–	–	–	–
CC[C@H](C)[C@H](N)C(=O)N[C@@H](C)C(=O)N[C@@H](CC(C)C)C(=O)N[C@H](C(=O)N[C@@H](CC(C)C)C(=O)N[C@@H](CCC(=O)O)C(=O)N1CCC[C@H]1C(=O)N(C)CC(=O)N[C@@H](CS)C(=O)N[C@@H](CS)C(=O)N[C@@H](CCC(N)=O)C(=O)N[C@H](CCC(=O)O)C(=O)N[C@@H](CCCNC(=N)N)C(=O)N[C@@H](C)C(=O)N[C@@H](C)C(=O)O)[C@@H](C)CC [PA-0130, IALILEP(Sar)CCQdERAA] (HELM PEPTIDE1{I.A.L.I.L.E.P.[Sar].C.C.Q.[dE].R.A.A}$$$$V2.0)	increased binding was observed at early time points with diminished signal at later time points	inhibition of complement activity	reduction in free DNA similar to that of the PA-I8Sar control; also recorded: ability to inhibit NET formation	–	showed inhibitory activity; also recorded: able to inhibit CTLA-4 mediated cell signaling	very low to undetectable levels of Caspase 3/7	showed an IL-2 signal at stimulation 2	did not show PD-1/PD-L1 inhibitory activity	–
IALILEP(Sar)CCQERAA (IALILEPXCCQERAA; sarcosine at position 8; MOD_RES (8)..(8) Sarcosine) [PA-0088, reference compound]	–	–	reduced the level of free DNA	–	–	–	–	–	water soluble without PEGylation
IALILEPI(Sar)CQERAA (IALILEPIXCQERAA; sarcosine at position 9; MOD_RES (9)..(9) Sarcosine) [PA-0089]	–	–	–	–	–	–	–	–	water soluble without PEGylation
